Data: patent US11607423B2, “Combination of a cannabinoid and a chemotheraopeutic agent for the treatment of breast cancer” (Akos Biosciences, Inc., priority 2018, dated 2023)

Key:
[1] = tested on: breast cancer cell line MCF7; assay: MCF7 cell viability by cell counting with trypan blue after 48 h; format: cell-based; conditions: CBD 0.1, 1 or 10 μM, FIG. 1
From the text: The breast cancer cell line MCF7, growing exponentially, was reset at a concentration of 1×10^4/ml and allowed to adhere overnight.

pERK = pERK level by western blotting in MCF7 cells, relative to GAPDH loading control; format: cell-based; conditions: CBD 100 nM, 1 μM or 10 μM, 48 h, band density relative to GAPDH, 5 separate experiments, FIG. 2
Procedure: The breast cancer cell line MCF7, growing exponentially, was reset at a concentration of 1×10^4/ml and allowed to adhere overnight. Cannabidiol (CBD) was added at 100 nM, 1 μM, or 10 μM, and cells were harvested for standard western blotting techniques after 48 h. Immunoprobing was performed using anti-pERK antibodies, and the densities of each band determined. These values were then expressed relative to a GAPDH loading control.

Question: With `C=C(C)[C@@H]1CCC(C)=C[C@H]1c1c(O)cc(CCCCC)cc1O` [CBD, cannabidiol] as the compound, how does the “viability of cancer cells” value [1] read?
Answer: unaffected

Question: And the “pERK relative to controls” value (pERK)?
Answer: increased
